Assay results published in patent publication US5641781A, “Topical ophthalmic composition comprising a 2-[4-(azolylbutyl)piperazinylmethyl]benzimidazole derivative, in particular for the treatment of allergic conjunctivitis” (Laboratorios Del Dr. Esteve, S.A., priority 1995, dated 1997).

System: guinea pig conjunctiva
Assay: Microvascular permeability in guinea pig conjunctiva induced by histamine (extravasation of Evans blue dye), topical ocular administration
Assay type: in vivo, guinea pig (male VAF Dunkin/Hartley)
Conditions: for % change (degree of permeability): topical, vs vehicle; for ED50 (concentration producing 50% inhibition of vascular permeability): Table 3
Description: The ocular antihistaminic topical effect of the products which form the subject of the present invention was evaluated by means of a model of microvascular permeability in guinea pig conjunctiva, induced by histamine. In this animal model of ocular antiallergic activity, the power, the fifty percent effective dose and the duration of action are measured.
Microvascular Permeability in Guinea Pig Conjunctiva Induced by Histamine (Extravasation of Evans Blue Dye)
Male VAF Dunkin/Hartley guinea pigs (6 per group) are injected intravenously, into the marginal vein of the ear, with 1.0 ml of Evans blue (1.0 mg/ml). Approximately 15 minutes after injection of the dye, 20 μl of the appropriate concentration of the compound of Example 1 or of the vehicle are applied topically to an eye of each of the animals. 2 minutes, 30 minutes and 6 hours after the topical application, the guinea pigs are anaesthetized and histamine (300 ng/10 μl) is administered to them subconjunctivally. Thirty minutes later the animals are sacrificed by inhalation of CO2 and the area of extravasation of the Evans blue is measured. The area of the blue dye is multiplied by the intensity of the colour, graded from 1 to 6, in order to produce a value of permeability for each animal (Yauni et al., Int. Arch. Allergy Immunol., 1993, 101, 102-106). The values obtained by the groups treated are then compared with those obtained with the group treated with the vehicle using Dunnett's "t" test (Dunnett C. W. "A multiple comparison procedure for comparing treatments with a control", J. Am Star. Assoc 1955, 50, 1096-1121)
This inhibition is observed in a range of concentrations from 0.1% to 0.0001% weight/volume.

## CCOCCn1c(CN2CCN(CCCCn3cccn3)CC2)nc2ccccc21 [Example 1]
0.00001 % (w/v), 30'
  % change (degree of permeability): -6%
0.00001 % (w/v), 6 h
  % change (degree of permeability): -3%
0.0001 % (w/v), 30'
  % change (degree of permeability): -45%
0.0001 % (w/v), 6 h
  % change (degree of permeability): -36%
0.001 % (w/v), 2'
  % change (degree of permeability): -41%
0.001 % (w/v), 30'
  % change (degree of permeability): -66%
0.001 % (w/v), 6 h
  % change (degree of permeability): -66%
0.01 % (w/v), 2'
  % change (degree of permeability): -66%
0.01 % (w/v), 30'
  % change (degree of permeability): -85%
0.01 % (w/v), 6 h
  % change (degree of permeability): -91%
0.1 % (w/v), 2'
  % change (degree of permeability): -75%
0.1 % (w/v), 30'
  % change (degree of permeability): -100%
0.1 % (w/v), 6 h
  % change (degree of permeability): -100%
2'
  ED50 (concentration producing 50% inhibition of vascular permeability): 0.0024 % w/v
30'
  ED50 (concentration producing 50% inhibition of vascular permeability): 0.00035 % w/v
6 h
  ED50 (concentration producing 50% inhibition of vascular permeability): 0.00043 % w/v
At 2 minutes
  ED50 (concentration which produces a 50% inhibition of the vascular permeability): 0.0024 w/v
At 30 minutes
  ED50 (concentration which produces a 50% inhibition of the vascular permeability): 0.00035 w/v
At 8 hours
  ED50 (concentration which produces a 50% inhibition of the vascular permeability): 0.00043 w/v
Ocular topical administration
  antihistaminic activity and duration of action (in words): powerful antihistaminic activity accompanied by an exceptionally long duration of action
  inhibition of vascular permeability induced by histamine (in words): inhibits, significantly and in a dose-dependent manner
